Here are results for 2 molecules from publication PMC9926489, “Chemical Optimization of Selective Pseudomonas aeruginosa LasB Elastase Inhibitors and Their Impact on LasB-Mediated Activation of IL-1β in Cellular and Animal Infection Models” (ACS Infectious Diseases, 2023).

Each structure is given as a SMILES string.

Data set [1] in a line: Cytotoxicity screening (MTS), HepG2. The settings on record: human, HepG2 cells. It is filed as cell-based. As for the experimental part:
Bronchial smooth muscle cells (BSMC, Lonza CC-2576), small airway epithelial cells (SAEC, Lonza CC-2547), or HepG2 cells (ATCC HB-8065) were seeded in 96-well plates at a density of 25,000 per well. Culture of these cells throughout the protocol utilized incubation at 37 °C, 5% CO2 in a humidified atmosphere, with BSMC and SAEC cells cultured in cell-specific media (Lonza) and HepG2 cells cultured in RPMI 1640 medium containing Glutamax (Gibco) and 10% fetal bovine serum. Plates containing BSMC cells were collagen coated to assist with cell adhesion. Following an overnight settling period, media was replaced with fresh media, with, or without, compound. Compound concentrations tested were 1, 3, 10, 30, and 100 μM, in duplicate. The cells were incubated with compound for 24 h. Control (1% DMSO) and positive standards terfenadine- and salmeterol-treated groups were included for both cell lines. […] The reaction was stopped with 12.5 μL of 10% SDS, plates briefly shaken, and absorbance (490 nm) read using a Spectramax M5e plate reader (Molecular Devices). Percentages of viable cells were calculated as: (test sample Abs 490 nM-mean blank Abs 490 nm)/(mean control Abs 490 nM-mean blank Abs 490 nm) × 100.

The target of a further data set is T1, purified LasB (Pseudomonas aeruginosa, UniProt P14756).
T1 construct: The mature LasB protein is a 33 kDa metalloprotease, which is secreted from P. aeruginosa; host or cells: P. aeruginosa PAO1 (native secretion, culture supernatant)
T1 sequence (P14756 198-498): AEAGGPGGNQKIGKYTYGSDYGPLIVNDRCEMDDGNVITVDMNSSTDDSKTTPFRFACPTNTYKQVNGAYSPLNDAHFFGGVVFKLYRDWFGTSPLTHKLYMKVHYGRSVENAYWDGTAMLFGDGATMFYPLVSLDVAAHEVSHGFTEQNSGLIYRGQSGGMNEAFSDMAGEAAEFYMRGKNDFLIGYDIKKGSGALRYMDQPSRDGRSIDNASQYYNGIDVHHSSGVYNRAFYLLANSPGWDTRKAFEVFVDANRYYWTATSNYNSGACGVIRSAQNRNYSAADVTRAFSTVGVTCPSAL
Put plainly: Inhibition of LasB-mediated proteolysis of pro-IL-1β-derived peptide Sub115. It is filed as biochemical, P. aeruginosa. From the text:
Previous studies have shown that LasB cleaves the N-terminal domain of pro-IL-1β, thereby generating a mature active form of IL-1β in a manner analogous to the normal host activation mechanism involving cleavage by caspases.[16] This activity can be followed spectrophotometrically via hydrolysis of an internally quenched fluorescent peptide Sub115 (McA-HDAPVRSLN-K-Dnp), which incorporates the LasB cleavage site from pro-IL-1β. To determine whether compounds 12 and 16 were able to inhibit this activity, Sub115 hydrolysis was measured in the presence of varying concentrations of substrate and inhibitors (Figure 2B). […] These values, although still submicromolar, were higher than those determined with the Abz-AGLA-Nba hydrolysis assay, perhaps due to the different ion composition of the respective assay buffers.
The peptide HDAPVRSLN, corresponding to amino acids 115–123 of the reference human pro-IL-1β sequence (UniProt: PO1584), was labeled on the N-terminus with Mca and on the C-terminus with Lys-Dnp (CPC Scientific) to generate an internally quenched fluorescent peptide (Sub115). […] The reaction was continuously monitored using a Victor multimode plate reader (PerkinElmer) with excitation at 355 nm and emission at 450 nm, and initial kinetic velocity was calculated. Inhibitory constants (Ki) were determined (two independent replicates) using a competitive inhibitor model.

The next data set concerns the target MMP-13 (Homo sapiens, UniProt P45452). Description: MMP-13 selectivity assay. It counts as biochemical. The settings on record: human MMP-13. As for the experimental part: Selectivity of compound inhibition was evaluated against other proteases at concentrations between 0.4 and 200 μM. Activity against rabbit angiotensin-converting enzyme (ACE, Sigma) was assessed using 10 μM fluorogenic substrate Abz-Phe-Arg-Lys(Dnp)-P (Enzo Life Sciences) in 100 mM Tris-HCl pH 7, 50 mM NaCl, 10 μM Zn SO4. Activity against human matrix metalloproteases (MMP)-2 and MMP-9 was assessed in 50 mM HEPES pH 7.5, 10 mM CaCl2, 0.01% Triton X-100 using 4 μM fluorogenic substrate Mca-Pro-Leu-Gly-Leu-Dpa-Ala-Arg-NH2 (Enzo Life Sciences). Activity against MMP-1 and MMP-13 was assessed in 25 mM HEPES pH 7.5, 100 mM NaCl, 100 mM CaCl2, 0.0005% Brij using 7.5 μM fluorogenic substrate Mca-Lys-Pro-Leu-Gly-Leu-Dpa-Ala-Arg-NH2 (Sigma) for MMP-1 and 1.25 μM fluorogenic substrate Mca-Pro-Cha-Gly-Nva-His-Ala-Dpa-NH2 (Millipore) for MMP-13. Activity against human neutrophil elastase (HNE, Enzo Life Sciences) was assessed in 100 mM HEPES pH 7.5, 500 mM NaCl, 0.01% of Triton X-100 using 100 μM fluorogenic substrate MeOSuc-AAPV-AMC (Enzo Life Sciences).

Data set [2] can be described thus: Mouse pharmacokinetics, lung epithelial lining fluid (ELF). The settings on record: for ELF concentration (C0) relative to LasB Ki: 10 mg/kg IV; for Kp / C0 / AUC(0-t) / clearance / half-life: female, ICR (CD-1); for Kp: lung epithelial lining fluid (ELF) and plasma, iv, read-out: lung penetration (AUClast ELF/AUClast plasma); for Kp / lung penetration (AUClast plasma/AUClast ELF): 10 mg/kg; for Kp / C0 / AUC(0-t) / clearance / half-life / lung penetration (AUClast plasma/AUClast ELF): single 10 mg/kg IV dose; for C0 / AUC(0-t) / clearance / half-life: lung epithelial lining fluid (ELF), epithelial lining fluid; for AUC(0-t): read-out: ELF AUClast; for clearance: read-out: ELF CL; for half-life: read-out: ELF t1/2 (converted). It is filed as in vivo. The procedure:
The PK parameters of compounds 12 and 16 were investigated in both plasma and lung epithelial lining fluid (ELF) after intravenous (IV) administration of compounds at 10 mg/kg in mice (Figure 4 and Table 5). […] Accordingly, these levels of lung penetration (9.5 and 5.2%, respectively) warranted the evaluation of the compounds in an animal model of lung infection using IV dosing.
Unrestrained, nonanesthetized mice (Female ICR (CD-1); Age 5–6 weeks; Size 22 ± 2 g; specific pathogen-free (SPF)) were injected IV with test article formulations via the tail vein. Animals were sacrificed by cardiac puncture under CO2 euthanasia at 0.08, 0.25, 1, 2, 4, 8, and 24 h post dosing. Blood was drawn into tubes coated with EDTA-K3, mixed gently and plasma was then harvested and kept frozen at −70 °C until further processing. To collect […] (BALF), 0.5 mL of PBS was administered once through a tracheal cannula after which about 0.2 to 0.3 mL of BALF was obtained. The BALF was kept on ice and centrifuged within 1 h of collection and the supernatant was harvested and kept frozen at −70 °C. Plasma and BALF samples were analyzed by LC-MS/MS (AB SCIEX API 3000 mass spectrometer). The apparent ELF volume of each BALF sample was estimated using urea as an endogenous marker of the ELF dilution. The urea concentrations in BALF and plasma samples were determined with the QuantiChrom Urea Assay Kit (DIUR-100) (BioAssay Systems) following the manufacturer’s protocol. For each BALF sample, the drug concentration in ELF was calculated as follows: drug concentrationELF = drug concentrationBALF × (urea concentrationplasma/urea concentrationBALF). The PK parameters of each compound after IV dosing (t1/2, C0, AUClast, and CL) were obtained from the noncompartmental analysis (NCA) of the plasma data using WinNonlin.

`COc1cc2sc(CNC(=O)C3(CC(=O)O)Cc4ccccc4C3)nc2cc1OCCC[N+](C)(C)C` [Compound 12] yielded a half-inhibitory concentration (IC50) at 24 h in data set [1] of over 100 µM. The molecule further gave an inhibition constant (Ki) on purified LasB of 0.704 µM. The same molecule registered an IC50 against MMP-13 of over 100 µM. In data set [2], the “ELF concentration (C0) relative to LasB Ki” value is reported as “over 100 fold”, the Kp worked out at 0.095, the C0 worked out at 2700 ng/mL and the AUC(0-t) turned out to be 57700 ng·h/mL. For the same molecule, in data set [2], the clearance was 1.5 mL/min/kg, the half-life is 25.8 h and the “lung penetration (AUClast plasma/AUClast ELF)” value is given as 9.54%.

For `COc1cc2sc(CNC(=O)C3(CC(=O)O)Cc4cc(F)c(F)cc4C3)nc2cc1OCCC[N+](C)(CCO)CCO` [Compound 16], in data set [1], the half-maximal inhibitory concentration (IC50) at 24 h is over 100 µM. The molecule also gave a Ki on purified LasB of 0.475 µM. For the same molecule, the IC50 on MMP-13 is over 100 µM. In addition, in data set [2], the “ELF concentration (C0) relative to LasB Ki” value is on record as “over 100 fold”, the Kp was 0.052, the C0 was determined as 2700 ng/mL and the AUC(0-t) is 27000 ng·h/mL. Also, in data set [2], the clearance was 5.2 mL/min/kg, the half-life was 9.5 h and the “lung penetration (AUClast plasma/AUClast ELF)” value is recorded as 5.22%.

Usually IC50 stands for the point on the concentration scale where inhibition reaches its midpoint. Low values mean greater potency in that assay, high ones weaker potency in that assay. A word on the Ki: it is the dissociation constant of the complex between target and ligand, obtained from inhibition or displacement.
